PubChem BioAssay AID248 (DTP/NCI, 2004)
“And” between values parts separate entries of the source, which are not always exact repeats. Equal entries are not always repeated. Inconclusive results and toxic doses are left out. No stated cut-off is given here; in the data, active means T/C of 150% or more; inactive means T/C below 125%.

System: L1210 leukemia ip in BDF1 mice, survival T/C
Experiment: NCI In Vivo Anticancer Drug Screen. Data for tumor model L1210 Leukemia (intraperitoneal) in B6D2F1 (BDF1) mice
Conditions: endpoint: mean survival time, higher = longer survival
Outline: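 Transplantable tumor model; survival measured in treated vs vehicle control mice. Value = treated/control.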

[1] = dose: 100.0 mg/kg/injection, schedule: Q01DX009 (ip), vehicle: saline with Tween-80
[2] = dose: 200.0 mg/kg/injection, schedule: Q01DX009 (ip), vehicle: saline with Tween-80
[3] = dose: 100.0 mg/kg/injection, schedule: Q01DX009 (ip), vehicle: Klucel (hydroxypropylcellulose) (HPC)
[4] = dose: 100.0 mg/kg/injection, schedule: Q04DX003 (ip), vehicle: Klucel (hydroxypropylcellulose) (HPC)
[5] = dose: 200.0 mg/kg/injection, schedule: Q01DX009 (ip), vehicle: Klucel (hydroxypropylcellulose) (HPC)
[6] = dose: 200.0 mg/kg/injection, schedule: Q04DX003 (ip), vehicle: Klucel (hydroxypropylcellulose) (HPC)
[7] = dose: 400.0 mg/kg/injection, schedule: Q01DX009 (ip), vehicle: Klucel (hydroxypropylcellulose) (HPC)
[8] = dose: 100.0 mg/kg/injection, schedule: Q04DX003 (ip), vehicle: saline with Tween-80
[9] = dose: 200.0 mg/kg/injection, schedule: Q04DX003 (ip), vehicle: saline with Tween-80

Measured: T/C

C=C(C)[C@H]1Cc2c(ccc3c2O[C@@H]2COc4cc(OC)c(OC)cc4[C@@H]2C3=O)O1
inactive: dose: 0.25 mg/kg/injection, schedule: Q01DX Z (ip), vehicle: other 95 % of control | dose: 0.5 mg/kg/injection, schedule: Q01DX Z (ip), vehicle: other 97 % of control | dose: 0.5 mg/kg/injection, schedule: Q02DX Z (ip), vehicle: water 96 % of control | dose: 0.75 mg/kg/injection, schedule: Q01DX Z (ip), vehicle: other 95 % of control | dose: 0.75 mg/kg/injection, schedule: Q02DX Z (ip), vehicle: water 101 % of control | dose: 1.0 mg/kg/injection, schedule: Q01DX Z (ip), vehicle: other 88 % of control | dose: 1.0 mg/kg/injection, schedule: Q02DX Z (ip), vehicle: water 102 % of control | dose: 2.0 mg/kg/injection, schedule: Q01DX015 (ip), vehicle: saline 97 % of control | dose: 2.0 mg/kg/injection, schedule: Q02DX Z (ip), vehicle: water 107 % of control | dose: 4.0 mg/kg/injection, schedule: Q01DX015 (ip), vehicle: saline 101 % of control | dose: 8.0 mg/kg/injection, schedule: Q01DX015 (ip), vehicle: saline 109 % of control | dose: 16.0 mg/kg/injection, schedule: Q01DX015 (ip), vehicle: saline 109 % of control

CCC1(c2ccccc2)NC(=O)NC1=O (configuration not stated)
inactive: [1] 102 % of control | [2] 100 % of control

CN(C)C(=O)Nc1ccncc1
inactive: dose: 25.0 mg/kg/injection, schedule: Q01DX001 (ip), vehicle: saline 97 % of control | dose: 25.0 mg/kg/injection, schedule: Q01DX009 (ip), vehicle: saline 98 % of control and 91 % of control | dose: 25.0 mg/kg/injection, schedule: Q04DX002 (ip), vehicle: saline with Tween-80 93 % of control and 97 % of control | dose: 25.0 mg/kg/injection, schedule: Q04DX003 (ip), vehicle: saline 103 % of control | dose: 50.0 mg/kg/injection, schedule: Q01DX001 (ip), vehicle: saline 95 % of control | dose: 50.0 mg/kg/injection, schedule: Q01DX009 (ip), vehicle: saline 97 % of control and 88 % of control | dose: 50.0 mg/kg/injection, schedule: Q04DX002 (ip), vehicle: saline with Tween-80 98 % of control and 105 % of control | dose: 50.0 mg/kg/injection, schedule: Q04DX003 (ip), vehicle: saline 101 % of control

CC(C)CCOC(=O)C(O)c1ccccc1 (configuration not stated)
inactive: [3] 98 % of control | [4] 100 % of control | [5] 92 % of control | [6] 88 % of control | [7] 95 % of control | dose: 400.0 mg/kg/injection, schedule: Q04DX003 (ip), vehicle: Klucel (hydroxypropylcellulose) (HPC) 91 % of control

OC1CSCSC1
inactive: [1] 98 % of control | [8] 98 % of control | [2] 94 % of control | [9] 98 % of control | dose: 400.0 mg/kg/injection, schedule: Q01DX009 (ip), vehicle: saline with Tween-80 94 % of control | dose: 400.0 mg/kg/injection, schedule: Q04DX003 (ip), vehicle: saline with Tween-80 98 % of control

O=C(Nc1ccc(F)c(Cl)c1)OCC1CCCO1 (configuration not stated)
inactive: dose: 6.25 mg/kg/injection, schedule: Q01DX009 (ip), vehicle: Klucel (hydroxypropylcellulose) (HPC) 92 % of control | dose: 12.5 mg/kg/injection, schedule: Q01DX009 (ip), vehicle: Klucel (hydroxypropylcellulose) (HPC) 89 % of control | [4] 94 % of control | [6] 89 % of control

O=C1NC(=O)/C(=C\c2ccc3c(c2)OCO3)S1
inactive: dose: 2.5 mg/kg/injection, schedule: Q01DX009 (ip), vehicle: saline with Tween-80 96 % of control | dose: 5.0 mg/kg/injection, schedule: Q01DX009 (ip), vehicle: saline with Tween-80 91 % of control | dose: 10.0 mg/kg/injection, schedule: Q01DX009 (ip), vehicle: saline with Tween-80 89 % of control

N=c1c2cnn(C3OC(CO)C(O)C3O)c2ncn1N (configuration not stated)
inactive: dose: 6.25 mg/kg/injection, schedule: Q01DX009 (ip), vehicle: water 112 % of control | dose: 12.5 mg/kg/injection, schedule: Q01DX009 (ip), vehicle: water 121 % of control

CCOC(=O)c1ccccc1NC(OCC)C(=O)c1ccccc1 (configuration not stated) (tested in a mixture with another compound)
inactive: dose: 100.0 mg/kg/injection, schedule: Q01DX001 (ip), vehicle: saline 96 % of control | dose: 200.0 mg/kg/injection, schedule: Q01DX001 (ip), vehicle: saline 97 % of control | dose: 400.0 mg/kg/injection, schedule: Q01DX001 (ip), vehicle: saline 103 % of control

Cc1cn(C2CCCCO2)c(=O)nc1NO (configuration not stated)
inactive: dose: 100.0 mg/kg/injection, schedule: Q01DX001 (ip), vehicle: carboxymethylcellulose (CMC) 95 % of control | dose: 200.0 mg/kg/injection, schedule: Q01DX001 (ip), vehicle: carboxymethylcellulose (CMC) 90 % of control | dose: 400.0 mg/kg/injection, schedule: Q01DX001 (ip), vehicle: carboxymethylcellulose (CMC) 108 % of control

CCCCOCN1CCCCC1
inactive: dose: 31.0 mg/kg/injection, schedule: Q01DX Z (ip), vehicle: carboxymethylcellulose (CMC) 95 % of control | dose: 62.5 mg/kg/injection, schedule: Q01DX Z (ip), vehicle: carboxymethylcellulose (CMC) 101 % of control | [8] 111 % of control | dose: 125.0 mg/kg/injection, schedule: Q01DX Z (ip), vehicle: carboxymethylcellulose (CMC) 105 % of control | [9] 102 % of control

CCCNC(=O)/C=C/C(=O)NCCC
inactive: dose: 100.0 mg/kg/injection, schedule: Q04DX003 (ip), vehicle: saline 100 % of control | dose: 200.0 mg/kg/injection, schedule: Q04DX003 (ip), vehicle: saline 100 % of control | dose: 400.0 mg/kg/injection, schedule: Q04DX003 (ip), vehicle: saline 100 % of control

CC(C)C1C(=O)N2CCCC2C2(O)OC(C(=O)NCCc3c[nH]c4ccccc34)(C(C)C)C(=O)N12 (configuration not stated)
inactive: dose: 6.25 mg/kg/injection, schedule: Q04DX003 (ip), vehicle: saline with Tween-80 98 % of control | dose: 12.5 mg/kg/injection, schedule: Q04DX003 (ip), vehicle: saline with Tween-80 111 % of control | dose: 25.0 mg/kg/injection, schedule: Q04DX003 (ip), vehicle: alcohol 98 % of control | dose: 25.0 mg/kg/injection, schedule: Q04DX003 (ip), vehicle: saline with Tween-80 101 % of control | dose: 50.0 mg/kg/injection, schedule: Q04DX003 (ip), vehicle: alcohol 105 % of control | dose: 50.0 mg/kg/injection, schedule: Q04DX003 (ip), vehicle: saline with Tween-80 98 % of control | dose: 100.0 mg/kg/injection, schedule: Q04DX003 (ip), vehicle: alcohol 98 % of control | dose: 200.0 mg/kg/injection, schedule: Q04DX003 (ip), vehicle: alcohol 98 % of control

CONS(=O)c1ccc([N+](=O)[O-])cc1 (configuration not stated)
inactive: [3] 98 % of control | [5] 96 % of control | [7] 100 % of control

O=C(Nc1ccc(O)cc1)Nc1ccc(O)cc1
inactive: dose: 37.5 mg/kg/injection, schedule: Q01DX Z (ip), vehicle: carboxymethylcellulose (CMC) 103 % of control | dose: 53.0 mg/kg/injection, schedule: Q01DX Z (ip), vehicle: carboxymethylcellulose (CMC) 92 % of control | dose: 53.0 mg/kg/injection, schedule: Q01DX Z (ip), vehicle: other 105 % of control | dose: 75.0 mg/kg/injection, schedule: Q01DX Z (ip), vehicle: carboxymethylcellulose (CMC) 115 % of control | dose: 80.0 mg/kg/injection, schedule: Q01DX Z (ip), vehicle: carboxymethylcellulose (CMC) 93 % of control | dose: 80.0 mg/kg/injection, schedule: Q01DX Z (ip), vehicle: other 102 % of control | dose: 120.0 mg/kg/injection, schedule: Q01DX Z (ip), vehicle: carboxymethylcellulose (CMC) 92 % of control | dose: 120.0 mg/kg/injection, schedule: Q01DX Z (ip), vehicle: other 103 % of control | dose: 150.0 mg/kg/injection, schedule: Q01DX Z (ip), vehicle: carboxymethylcellulose (CMC) 103 % of control | dose: 180.0 mg/kg/injection, schedule: Q01DX Z (ip), vehicle: carboxymethylcellulose (CMC) 89 % of control | dose: 180.0 mg/kg/injection, schedule: Q01DX Z (ip), vehicle: other 102 % of control | dose: 270.0 mg/kg/injection, schedule: Q01DX Z (ip), vehicle: other 103 % of control | dose: 300.0 mg/kg/injection, schedule: Q01DX Z (ip), vehicle: carboxymethylcellulose (CMC) 98 % of control | dose: 404.0 mg/kg/injection, schedule: Q01DX Z (ip), vehicle: other 105 % of control
